Here are results for 1 molecule from patent publication US20070142395A1, “Treatment of sexual dysfunction with 1-[3-[4-(3-chlorophenyl)-1-piperazinyl]propyl]-5-methoxy-3,4-dihydro-2(1H)-quinolone or salt thereof” (Vela Pharmaceuticals, Inc., priority 2005, published 2007).

The assay has as its system depressed patients. Kind of assay: Comparison of change in CSFQ score (difference from placebo) with bupropion XL and escitalopram, FIG. 1. The settings on record: overall and virtually every CSFQ subscale, bupropion XL data from Clayton et al. In kind it is in vivo, Humans. The method, then: FIG. 1 depicts the difference in the Changes in Sexual Function Questionaire (CSFQ) scores (difference from placebo) from baseline to week 8 for OPC-14523, buproprion XL and escitalopram. The data for bupropion XL and escitalopram were obtained from Clayton et al., 45th Annual NCDEU Meeting, Session 1-21, Boca Raton, Fla., June 6-9, 2005. For the Clayton et al. data, N=273 (placebo), 276 (bupropion XL, 300-400 mg) and 281 (escitalopram, 10-20 mg).
There is evidence that bupropion reduces the sexual dysfunction in depressed patients, and may be useful as a treatment for sexual dysfunction. Therefore, the data of OPC-14523 effect on sexual dysfunction discussed above were compared to data on the effects of bupropion XL and escitalopram on sexual function reported by Clayton et al. (45th Annual NCDEU Meeting, Boca Raton, Fla. June 6-9, 2005).
The comparison was based on the change in CSFQ score from baseline to week 8. The changes were assessed by subtracting the placebo score from the treated score at baseline and at week 8, then taking the difference of these two numbers.

Regarding `COc1cccc2c1CCC(=O)N2CCCN1CCN(c2cccc(Cl)c2)CC1` [OPC-14523, 1-[3-[4-(3-chlorophenyl)-1-piperazinyl]propyl]-5-methoxy-3,4-dihydro-2(1H)-quinolone], the “change in CSFQ score from baseline to week 8 (difference from placebo), compared to bupropion XL” value is on record as “larger improvement”.
